One test has as its system OT-1 CTLs. Put plainly: Trogocytosis assay of DiD-labeled CAFs co-cultured with OT-1 CTLs. The test is classed as cell-based, mouse. As for the experimental part:
For trogocytosis between OT-1 and CAF cells, T cells were isolated from splenocytes of OTI mice (strain 021880, The Jackson Laboratory) and stimulated with OVA257-264 (1 μg/ml) for 24 hours as described.
Cholesterol abundance in cell membranes was determined with Cholesterol Detection Assay Kit (Cayman, cat #10009779). Dissociated cells were fixed with fixative solution for 10 minutes, washed and labeled with Filipin III as per the manufacturer's instructions. Labeling with Filipin III was done by incubating in the dark for 30 minutes. After two washes for 5 minutes each, labeling was analyzed by flow cytometry (excitation: 340-380, emission: 385-470). The IFN-γ, Granzyme B and Foxp3 were detected using Foxp3/Transcription Factor Staining Buffer (00-5523-00, Thermo Fisher Scientific). Cells were stained for cell surface markers at 4° C. for 30 min followed by fixation and permeabilization buffer for 30 mins and two washes with permeabilization buffer and incubation with the indicated antibodies for 30 mins, washed with PBS twice followed by flow cytometry analysis.

Test [1] has as its system store-operated calcium entry (SOCE) in CAFs. Description: Cytosolic calcium (Fluo4) in CAFs co-cultured with Panc-1 cells. The format is cell-based, human. The conditions noted are these: indicated concentrations of inhibitors, Fluo4 measured 5 minutes after addition. As for the experimental part: CAF (5×10^3) and PDAC ([…]) cells were incubated (separately or in co-culture) on coverslips for 12 hrs before loading with the calcium indicator Fluo4-AM (5 μM; Invitrogen, Eugene, OR) in DMEM supplemented with HEPES and 0.5% FBS and incubated at 37° C., 5% CO2 for 30 min. Cells were washed in DMEM before incubating for an additional 30 minutes at 37° C., 5% CO2 to permit de-esterification of the dye. Fluorescence emissions at 506 nm in response to excitation at 494 nm were monitored for 60 cycles at a frequency of 0.33 Hz using a Leica SP8 laser scanning microscope (Buffalo Grove, IL) at 37° C. with 5% CO2. Intracellular Ca2+measurements are shown as absolute fluorescence obtained from 35-45 cells obtained using Leica LASX software. Averaged results±SEM from at least three independent experiments were analyzed by one-way ANOVA with GraphPad Prism. […]
CAF (5×10^3) cells were incubated on coverslips for 12 hrs before loading with the calcium indicator Fura2-AM (2 μM; Invitrogen, Eugene, OR) in cation-safe solution (107 mM NaCl, 7.2 mM KCl, 1.2 mM MgCl2, 11.5 mM glucose, 20 mM Hepes-NaOH, 1 mM CaCl2, pH 7.2) for 30 min at 24° C. as previously described. Cells were washed, and dye was allowed to de-esterify for a minimum of 30 min at 24° C. Cells were treated with Vehicle control, […] CM462, or 1 μM BTP2 along with 2 μM Thapsigargin for 10 minutes. After Ca2+ levels returned to their baseline, 1 mM Ca2+ was added. Ca2+ measurements were made using a Leica DMI 6000B fluorescence microscope controlled by Slidebook Software (Intelligent Imaging Innovations; Denver, CO). Fluorescence emission at 505 nm was monitored while alternating between 340 and 380 nm excitation wavelengths at a frequency of 0.67 Hz; intracellular Ca2+ measurements are shown as 340/380 nm ratios obtained from groups (20-25) of single cells.

For test [2], the target named is T1, ANO6 (Homo sapiens, UniProt Q4KMQ2).
T1 sequence (Q4KMQ2 1-910): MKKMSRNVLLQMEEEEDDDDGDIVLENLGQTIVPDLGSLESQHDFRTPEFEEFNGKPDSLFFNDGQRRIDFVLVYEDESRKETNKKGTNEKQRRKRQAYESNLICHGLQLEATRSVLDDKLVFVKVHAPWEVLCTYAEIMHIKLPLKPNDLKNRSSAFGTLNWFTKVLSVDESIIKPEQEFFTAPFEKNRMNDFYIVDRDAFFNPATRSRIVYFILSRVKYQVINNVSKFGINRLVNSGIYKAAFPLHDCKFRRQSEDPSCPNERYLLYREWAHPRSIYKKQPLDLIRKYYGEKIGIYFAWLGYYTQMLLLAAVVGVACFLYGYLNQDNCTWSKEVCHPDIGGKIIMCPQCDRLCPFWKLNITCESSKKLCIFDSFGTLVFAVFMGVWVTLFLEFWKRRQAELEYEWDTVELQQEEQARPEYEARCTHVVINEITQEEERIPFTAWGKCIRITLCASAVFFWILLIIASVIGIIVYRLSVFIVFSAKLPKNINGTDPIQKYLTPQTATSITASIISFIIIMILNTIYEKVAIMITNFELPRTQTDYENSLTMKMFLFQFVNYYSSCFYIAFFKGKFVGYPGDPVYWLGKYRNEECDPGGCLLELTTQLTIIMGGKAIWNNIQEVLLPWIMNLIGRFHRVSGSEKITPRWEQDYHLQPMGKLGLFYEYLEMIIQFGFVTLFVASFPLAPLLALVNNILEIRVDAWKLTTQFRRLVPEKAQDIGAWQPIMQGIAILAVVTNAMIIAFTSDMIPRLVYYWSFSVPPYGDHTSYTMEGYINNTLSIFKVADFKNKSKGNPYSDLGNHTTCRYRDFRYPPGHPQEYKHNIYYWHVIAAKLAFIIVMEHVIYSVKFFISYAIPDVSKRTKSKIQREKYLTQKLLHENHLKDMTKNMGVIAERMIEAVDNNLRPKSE
Put plainly: PtdSer externalization (annexin XII) in CAFs co-cultured with DsRed-tagged Panc-1 cells. The test is classed as cell-based. On the set-up: this increase was observed only in control CAFs (ANO6-proficient) engaged in physical contacts with DsRed-tagged Panc-1 cells; endogenous in cells; host or cells: human CAFs in co-culture with DsRed-tagged Panc-1 cells. Conditions: BTP2 10 μM; clofazimine 1 μM; niclosamide. How it is done: (§1) CAFs were seeded in 24-well glass bottom plates (cat. #81156, Ibidi, Fitchburg, WI) at a density of 20,000 cells per well. Cells were then treated with niclosamide (1 μM) for 2 h. After one wash with FBS-free media at RT, cells were incubated with 250 μl of 1:100 annexin XII and 1:200 propidium iodide (pSIVA Abcam #ab129817), with or without 10 μM ionomycin. Cells were then incubated (5 min 37C) and imaged by fluorescence microscopy using a Nikon A1 camera (Nikon) linked to a Nikon Eclipse Ti2-E Inverted Microscope Imaging System (Nikon) for each channel. Fifteen images per well were acquired.

The next test has as its system PDAC cells. Description: Trogocytosis of CAF membranes by PDAC cells with cytoskeleton inhibitors. The test is classed as cell-based. Conditions: cytoskeleton (actin polymerization) inhibitors. As for the experimental part: (§2) To label cellular membranes, pairs of lipophilic fluorescent dyes were used according to the manufacturer's instructions in the following combinations: 1) adherent CAFs were stained with 1 μM PKH67 (Sigma-Aldrich), Panc-1 were stained in suspension with 10 μM CellTracker™ orange CMCMR (Thermo Fisher Scientific); 2) CAFs labeled with 0.5 μM BODIPY-cholesterol (Topfluor Cholesterol, #DO-016545, Avanti Polar Lipids) dissolved in 0.1 mM methyl-beta-cyclodextrin (#C4555, Sigma) with 2 μM cholesterol (#C8667, Sigma-Aldrich) in MEM media at 37° C. for 30 min in suspension; murine or human (Panc-1) PDAC cells were stained in suspension with CPD670 (#65-0840-85, Thermo Fisher Scientific). After labeling, CAFs were co-incubated for the indicated time intervals with PDAC cells in 12-well culture plates at ratio of 2:1 in 0.5% DMEM media. Co-cultures of CAFs and PDAC cells for 3 minutes on ice minutes were used as negative controls. In experiments assessing the effect of extracellular calcium on trogocytosis, cells were co-cultured in Phosphate Buffered Saline (PBS) containing calcium and magnesium (D8662, Sigma-Aldrich) or in PBS without calcium and magnesium (D8537, Sigma-Aldrich). After co-cultures, cells were collected and pelleted by centrifugation (5 min, 1500 rpm), resuspended in 10% formalin (Sigma) for 10 min at RT, washed and re-suspended in PBS/1% BSA. Trogocytosis was measured as the acquisition of CAF-specific fluorescence in PDAC cells by flow cytometry on MACSQuant® VYB Flow Cytometer (Miltenyi Biotec) or FACScan analyzer (BD Biosciences). Analysis of dual staining was done using FlowJo software (10.8.1, BD Biosciences). Live cells were gated based on FSC/SSC parameters, then single cells were gated based on SSC-A/SSC-H.

A further test has as its system Panc-1 cells. Put plainly: Trogocytosis of PKH67-labeled CAF membranes by Panc-1 cells in co-culture (flow cytometry). The format is cell-based, human. The conditions noted are these: 3 mM EGTA, mean fluorescence intensity normalized to vehicle. As for the experimental part:
as §2, with “After co-cultures, cells were collected and pelleted by centrifugation (5 min, 1500 rpm), resuspended in 10% formalin (Sigma) for 10 min at RT, washed and re-suspended in PBS/1% BSA.” left out, “Analysis of dual staining was done using FlowJo software (10.8.1, BD Biosciences). Live cells were gated based on FSC/SSC parameters, then single cells were gated based on SSC-A/SSC-H.” left out

Test [3] concerns the target T1, ANO6. Put plainly: Phosphatidylserine externalization assay in CAFs pulsed with ionomycin (annexin XII). The test is classed as cell-based. On the set-up: endogenous in cells; host or cells: human patient-derived, hTERT-immortalized pancreatic cancer-associated fibroblasts (CAFs). As for the experimental part: as §1
For a further test, the system named is KPCN349 cells. Put plainly: Trogocytosis of BODIPY-cholesterol labeled CAF membranes by KPCN349 cells with PtdSer masking. The format is cell-based, murine. Conditions: 100 nM Annexin-V or 100 nM Zn-DPA; CAFs pre-treated 2 h, maintained in co-culture. As for the experimental part:
as §2, with “After co-cultures, cells were collected and pelleted by centrifugation (5 min, 1500 rpm), resuspended in 10% formalin (Sigma) for 10 min at RT, washed and re-suspended in PBS/1% BSA.” left out, “Analysis of dual staining was done using FlowJo software (10.8.1, BD Biosciences). Live cells were gated based on FSC/SSC parameters, then single cells were gated based on SSC-A/SSC-H.” left out

Entries after “also recorded” stand apart in the source; their conditions may differ.

As for `C[C@H](CCCC(C)(C)O)[C@H]1CC[C@H]2[C@@H]3CC=C4C[C@@H](O)CC[C@]4(C)[C@H]3CC[C@]12C` [25-hydroxycholesterol], the “Ability of CAFs to inhibit IFN-γ production by the CTLs” value in the test with OT-1 CTLs (12 h co-culture with CAFs) was “reduced the ability of CAFs to inhibit IFN-γ production”. In addition, the “Transfer of DiD (CAF PM uptake) from CAFs to OT-1 CTLs” value with OT-1 CTLs (12 h co-culture, niclosamide 1 μM, clofazimine 1 μM, anti-TIM3 Ab 4 μg/ml, 25-hydroxycholesterol 4 μM) was “effectively inhibited the transfer of DiD”.
As to `Cc1nnsc1C(=O)Nc1ccc(-n2nc(C(F)(F)F)cc2C(F)(F)F)cc1` [BTP2], the “Cytosolic Ca2+ elevation (Fluo4 signal) in CAFs engaged in cell-cell contacts with PDAC (Panc-1) cells” value (“Cytosolic Ca2+ elevation (Fluo4 signal)” below) in test [1] was “effectively blocked cytosolic Ca2+ elevation; also recorded: abrogated Fluo4 fluorescent signal”. The “PtdSer externalization (annexin XII) in CAFs co-cultured with Panc-1 cells” value at ANO6 [2] was “suppressed PtdSer externalization; also recorded: blocked”.
With `C=C1[C@@H](C)[C@H]2[C@H](Cc3ccccc3)NC(=O)[C@]23[C@H](OC(C)=O)/C=C/[C@@](C)(O)C(=O)[C@@H](C)C/C=C/[C@H]3[C@@H]1O` [Cytochalasin D], the “Uptake of CAF PMs by PDAC cells” value is given as “suppressed uptake of CAF PMs” in the test on PDAC cells and “partially suppressed” with PDAC cells (listed as cytochalasin D).
Consider `O=C(N/N=C/c1ccc(O)c(O)c1)c1cc2ccccc2cc1O` [Dynasore], for which the “Trogocytosis of CAF membranes / uptake of membrane lipids from human CAFs by Panc-1 cells” value in the test on Panc-1 cells (listed as dynasore) is given as “did not affect the uptake”.
For `O=C(O)CN(CCOCCOCCN(CC(=O)O)CC(=O)O)CC(=O)O` [EGTA], the “Trogocytosis of CAF membranes / uptake of membrane lipids from human CAFs by Panc-1 cells” value in the test with Panc-1 cells is “inhibited”. Further, the “PtdSer externalization in CAFs with extracellular calcium chelator” value at ANO6 [3] (1 μM ionomycin 5 minutes, 2 mM EGTA, annexin XII) is given as “blocked”.
Regarding `C/C1=C/C(=O)O[C@@H]2C[C@@H](CC[C@H](C)/C=C\CC1)O[C@@](O)([C@@H]1CSC(=O)N1)C2` [Latrunculin B], the “Uptake of CAF PMs by PDAC cells” value in the test on PDAC cells is on record as “suppressed uptake of CAF PMs”.
`COc1ccc2c(c1)CC[C@@H]1[C@@H]2CC[C@]2(C)[C@@H](NCCCCCCN3C(=O)C=CC3=O)CC[C@@H]12` [U73122]: in test [1], the “Cytosolic Ca2+ elevation (Fluo4 signal)” value is “no effect on Fluo4 signal”.
Turning to `C[C@H](CCC(=O)O)C[C@H](C)C[C@H](C)C(=O)/C=C(\O)[C@H](C)C[C@H](C)C/C=C/[C@@H](C)[C@@H](O)[C@@H](C)[C@@H](O)C[C@@H]1CC[C@@](C)([C@H]2CC[C@@](C)([C@@H](C)O)O2)O1` [ionomycin], on ANO6 [3] (calcium ionophore treatment), the “Cytoplasmic calcium in control CAFs” value is given as “increased cytoplasmic calcium” and the “PtdSer externalization to the PM in control CAFs” value is listed as “led these cells to externalize PtdSer”.
As for `Cc1cccc(F)c1C(=O)Nc1cnc(-c2cc3c(cc2Cl)OC(F)(F)O3)cn1` [zegocractin], the “Cytosolic Ca2+ elevation (Fluo4 signal)” value is recorded as “abrogated Fluo4 fluorescent signal” in test [1] and “effectively blocked cytosolic Ca2+ elevation” in test [1] (listed as zegocratin).
bis-Zn-dipicolylamine [Zn-DPA]: the “Uptake of BODIPY-labeled CAF membranes by KPCN349 cells” value with KPCN349 cells was “significantly reduced uptake; also recorded: antagonizes trogocytosis”.
As for lantrinculin A, in the test on PDAC cells, the “Uptake of CAF PMs by PDAC cells” value is “partially suppressed”.
